Measured values taken from patent publication US20230263886A1, “VACCINES, VACCINE PRIMING, AND ANTIGEN DOSE SPARING” (priority 2020, published 2023).

What was measured:
[1] = type: in vivo, C57BL/6J mice
Experimental: Body weights were measured serially.

H3N2 [2] = details: including a recombinant influenza antigen
Experimental: Sera were analyzed at days 0, 14, and 28 by ELISA for H3N2-specific IgG titers and HI (hemagglutination inhibition) titers, H1N1-specific IgG titers and HI titers, and B/Phuket-specific IgG titers and HI titers. All mice were previously naïve to human influenza.

H3N2 [3] = experiment: H3N2-specific IgG by ELISA, dose-sparing study in mice (Example 4); details: FIG. 26
Experimental: Sera were analyzed at days 0, 21 and 42 by ELISA for H3N2-specific IgG.

Compound	maximum weight loss ([1]; mice receiving 20 mcg of QS-21) [%]	body weight after immunization ([1]; mice receiving TQL-1055)	dose sparing for vaccine antigens (H3N2 [2])	antigen dose-sparing effects, murine antibody response to FLUBLOK (H3N2 [3])
QS-21 [reference compound]	> 10	–	–	–
CC1O[C@@H](OC2C(O)[C@@H](NC(=O)CCCCCCCCCCC(=O)O)C(CO)O[C@H]2OC(=O)[C@]23CCC(C)(C)CC2C2=CCC4C5(C)CC[C@H](O)C(C)(C=O)C5CCC4(C)C2(C)CC3O)C(O)C(O)[C@H]1O[C@@H]1OC[C@@H](O)C(O)C1O (stereo partly shown) [TQL-1055]	–	gained weight steadily	at least 32 ×	superior antigen dose-sparing effects
